Assay results published in patent publication US10947252B2, “Inhibitors of KEAP1-Nrf2 protein-protein interaction” (Janssen Pharmaceutica NV, priority 2018, dated 2021).

Key:
[1] = molecular target: Kelch domain of human KEAP1 (321-624 aa) (Homo sapiens (Human), UniProt Q14145); experiment: KEAP1 KELCH ThermoFluor binding assay; settings: KEAP Kelch […], 1,8-ANS, pH 7.0, average of results obtained, read-out: Tf Kd;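 also: Ligand-induced melting temperature shift of E. coli-expressed KEAP1 Kelch protein, Kd estimated from concentration-response curves of ΔTm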
Sequence of Kelch domain of human KEAP1 (321-624 aa) (Q14145 321-624): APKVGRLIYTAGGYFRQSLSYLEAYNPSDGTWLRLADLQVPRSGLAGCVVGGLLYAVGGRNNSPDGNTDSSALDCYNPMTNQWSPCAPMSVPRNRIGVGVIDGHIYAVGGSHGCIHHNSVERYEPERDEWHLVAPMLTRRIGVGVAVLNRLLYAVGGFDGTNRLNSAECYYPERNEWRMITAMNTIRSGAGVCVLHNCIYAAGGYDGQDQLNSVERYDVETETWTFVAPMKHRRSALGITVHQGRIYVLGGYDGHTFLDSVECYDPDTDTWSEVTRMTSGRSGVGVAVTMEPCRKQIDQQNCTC
Excerpt: The shift in the melting point described as a ΔTm is proportional to the concentration and affinity of the ligand. The compound potency may be compared as a rank order of either ΔTm values at a single compound concentration or in terms of KD values, estimated from concentration response curves.
The protein was expressed in E. coli with 6His tag that was cleaved prior to receipt for use.
Protein (KEAP Kelch) and compound solutions were dispensed into black 384-well polypropylene PCR microplates (Abgene) and overlayed with silicone oil (1 μL, Fluka, type DC 200) to prevent evaporation.

[2] = test system: Glo-Response ARE-luc2P HEK293 cell line; experiment: ARE luciferase reporter cell-based assay; settings: Homo sapiens, HEK293, 24 h, average of results obtained;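 also: luciferase signal tracks Nrf2 activation of the ARE once compounds disrupt KEAP1-Nrf2 binding, read with One-Glo reagent, DMSO serving as low control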

SMILES | Kd [1] [nM] | EC50 [2] [nM]
Cc1ccc([C@@H](c2ccn3c(C4CC4)nnc3c2C)C(C)(C)C(=O)O)cc1CN1CC2(CC2)Oc2nc(OCCN3CCCC3)c(C)cc2S1(=O)=O (single isomer, unassigned) [Example 663, (*S)-3-(3-Cyclopropyl-8-methyl-[1,2,4]triazolo[4,3-a]pyridin-7-yl)-2,2-dimethyl-3-(4-methyl-3-((8′-methyl-1′,1′-dioxido-7′-(2-(pyrrolidin-1-yl)ethoxy)spiro[cyclopropane-1,4′-pyrido[2,3-b][1,4,5]oxathiazepin]-2′(3′H)-yl)methyl)phenyl)propanoic Acid] | < 1 | 57.5
Cc1ccc([C@@H](c2ccn3c(C(F)(F)F)nnc3c2C)C(C)(C)C(=O)O)nc1CN1CC2(CC2)Oc2nc(OCCN3CCCC3)c(C)cc2S1(=O)=O (single isomer, unassigned) [Example 634, (*S)-2,2-Dimethyl-3-(8-methyl-3-(trifluoromethyl)-[1,2,4]triazolo[4,3-a]pyridin-7-yl)-3-(5-methyl-6-((8′-methyl-1′,1′-dioxido-7′-(2-(pyrrolidin-1-yl)ethoxy)spiro[cyclopropane-1,4′-pyrido[2,3-b][1,4,5]oxathiazepin]-2′(3′H)-yl)methyl)pyridin-2-yl)propanoic Acid] | < 1 | 9.53
Cc1ccc([C@@H](c2ccn3c(C(F)(F)F)nnc3c2C)C(C)(C)C(=O)O)cc1CN1CC2(CCOCC2)Oc2nc(OCCCOCCCO)ccc2S1(=O)=O (single isomer, unassigned) [Example 607, (*S)-3-(3-((7′-(3-(3-Hydroxypropoxy)propoxy)-1′,1′-dioxido-2,3,5,6-tetrahydrospiro[pyran-4,4′-pyrido[2,3-b][1,4,5]oxathiazepin]-2′(3′H)-yl)methyl)-4-methylphenyl)-2,2-dimethyl-3-(8-methyl-3-(trifluoromethyl)-[1,2,4]triazolo[4,3-a]pyridin-7-yl)propanoic Acid] | 1360 | 7620
Cc1cc2cc([C@@H](CC(=O)O)c3ccc(C)c(CN4C[C@H]5CCCCN5c5ncccc5S4(=O)=O)c3)n(C)c2nn1 (single isomer, unassigned) [Example 444, (*S)-3-(3,7-Dimethyl-7H-pyrrolo[2,3-c]pyridazin-6-yl)-3-(3-(((*R)-5,5-dioxido-7,7a,8,9,10,11-hexahydro-6H-dipyrido[2,1-d:2′,3′-f][1,2,5]thiadiazepin-6-yl)methyl)-4-methylphenyl)propanoic Acid] | 21.3 | > 20000
Cc1cnc2c(c1)S(=O)(=O)N(Cc1cc([C@H](c3ccn4c(C5CC5)nnc4c3C)C(C)(C)C(=O)O)ccc1C)CC1(COC1)O2 (single isomer, unassigned) [Example 619, (*R)-3-(3-Cyclopropyl-8-methyl-[1,2,4]triazolo[4,3-a]pyridin-7-yl)-2,2-dimethyl-3-(4-methyl-3-((8′-methyl-1′,1′-dioxidospiro[oxetane-3,4′-pyrido[2,3-b][1,4,5]oxathiazepin]-2′(3′H)-yl)methyl)phenyl)propanoic Acid] | < 1 | 4.48
Cc1cnc2c(c1)S(=O)(=O)N(Cc1cc([C@H](c3ccn4c(C(F)(F)F)nnc4c3C)C(C)(C)C(=O)O)ccc1C)CC1(CCNCC1)O2 (single isomer, unassigned) [Example 341, (*R)-2,2-Dimethyl-3-(4-methyl-3-((8′-methyl-1′,1′-dioxidospiro[piperidine-4,4′-pyrido[2,3-b][1,4,5]oxathiazepin]-2′(3′H)-yl)methyl)phenyl)-3-(8-methyl-3-(trifluoromethyl)-[1,2,4]triazolo[4,3-a]pyridin-7-yl)propanoic Acid] | 18800 | > 20
Cc1ccc([C@H](c2ccn3c(C(F)(F)F)nnc3c2C)C(C)(C)C(=O)O)cc1CN1CC2(CCOCC2)Oc2nc(N[C@H](C)CCO)ccc2S1(=O)=O (single isomer, unassigned) [Example 120, (*R)-3-(3-((7′-(((R)-4-Hydroxybutan-2-yl)amino)-1′,1′-dioxido-2,3,5,6-tetrahydrospiro[pyran-4,4′-pyrido[2,3-b][1,4,5]oxathiazepin]-2′(3′H)-yl)methyl)-4-methylphenyl)-2,2-dimethyl-3-(8-methyl-3-(trifluoromethyl)-[1,2,4[triazolo[4,3-a]pyridine-7-yl)propanoic Acid] | 8560 | 19400
Cc1ccc([C@H](CC(=O)O)c2ccn3c(C(F)(F)F)nnc3c2C)cc1CN1CC2(CC2)N(C)c2ncccc2S1(=O)=O (single isomer, unassigned) [Example 184, (*S)-3-(4-Methyl-3-((5′-methyl-1′,1′-dioxido-5′H-spiro[cyclopropane-1,4′-pyrido[2,3-f][1,2,5]thiadiazepin]-2′(3′H)-yl)methyl)phenyl)-3-(8-methyl-3-(t*rifluoromethyl)-[1,2,4]triazolo[4,3-a]pyridin-7-yl)propanoic Acid] | 1.4 | 130
Cc1ccc([C@H](c2ccn3c(C(F)(F)F)nnc3c2C)C(C)(C)C(=O)O)cc1CN1CC2(CC2)Oc2nc(OCCN3CCC(F)CC3)c(C)cc2S1(=O)=O (single isomer, unassigned) [Example 662, (*S)-3-(3-((7′-(2-(4-fluoropiperidin-1-yl)ethoxy)-8′-methyl-1′,1′-dioxidospiro[cyclopropane-1,4′-pyrido[2,3-b][1,4,5]oxathiazepin]-2′(3′H)-yl)methyl)-4-methylphenyl)-2,2-dimethyl-3-(8-methyl-3-(trifluoromethyl)-[1,2,4]triazolo[4,3-a]pyridine-7-yl)propanoic Acid] | 568 | 308
Cc1ccc([C@H](CC(=O)O)c2ccn3c(C(F)(F)F)nnc3c2C)cc1CN1C[C@@H]2CCCN2c2ccccc2S1(=O)=O (single isomer, unassigned) [Example 274, (*S)-3-(3-(((S)-5,5-Dioxido-7a,8,9,10-tetrahydrobenzo[f]pyrrolo[2,1-d][1,2,5]thiadiazepin-6(7H)-yl)methyl)-4-methylphenyl)-3-(8-methyl-3-(trifluoromethyl)-[1,2,4]triazolo[4,3-a]pyridin-7-yl)propanoic Acid] | 1.19 | 51.2
Cc1ccc([C@@H](c2ccn3c(C(F)(F)F)nnc3c2C)C(C)(C)C(=O)O)cc1CN1C[C@@]2(CCOC2)Oc2ncccc2S1(=O)=O (single isomer, unassigned) [Example 382, (*S)-3-(3-(((*R)-1′,1′-Dioxido-4,5-dihydro-2H-spiro[furan-3,4′-pyrido[2,3-b][1,4,5]oxathiazepin]-2′(3′H)-yl)methyl)-4-methylphenyl)-2,2-dimethyl-3-(8-methyl-3-(trifluoromethyl)-[1,2,4]triazolo[4,3-a]pyridin-7-yl)propanoic Acid] | < 1 | 1.8
Cc1ccc(C(CC(=O)O)c2ccc3c(nnn3C3CC3)c2C)cc1CN1CC2(COC2)Oc2ccccc2S1(=O)=O (racemic) [Example 214, (R/S)-3-(1-Cyclopropyl-4-methyl-1H-benzo[d][1,2,3]triazol-5-yl)-3-(3-((1,1-dioxidospiro[benzo[b][1,4,5]oxathiazepine-4,3′-oxetan]-2(3H)-yl)methyl)-4-methylphenyl)propanoic Acid] | < 1 | 5.1
COCCCNc1ccc2c(n1)OC1(CC1)CN(Cc1cc([C@H](CC(=O)O)c3ccn4c(C(F)(F)F)nnc4c3C)ccc1C)S2(=O)=O (single isomer, unassigned) [Example 107, (*S)-3-(3-((7′-((3-Methoxypropyl)amino)-1′,1′-dioxidospiro[cyclopropane-1,4′-pyrido[2,3-b][1,4,5]oxathiazepin]-2′(3′H)-yl)methyl)-4-methylphenyl)-3-(8-methyl-3-(trifluoromethyl)-[1,2,4]triazolo[4,3-a]pyridine-7-yl)propanoic Acid] | < 1 | 259
Cc1cnc2c(c1)S(=O)(=O)N(Cc1cc(C(c3ccn4c(C(F)(F)F)nnc4c3C)C(C)(C)C(=O)O)ncc1C)CC1(CC1)O2 (racemic) [Example 587, (R/S)-2,2-Dimethyl-3-(8-methyl-3-(trifluoromethyl)-[1,2,4]triazolo[4,3-a]pyridin-7-yl)-3-(5-methyl-4-((8′-methyl-1′,1′-dioxidospiro[cyclopropane-1,4′-pyrido[2,3-b][1,4,5]oxathiazepin]-2′(3′H)-yl)methyl)pyridin-2-yl)propanoic Acid] | < 1 | 17.4
Cc1ccc([C@@H](c2ccn3c(C(F)F)nnc3c2C)C(C)(C)C(=O)O)nc1CN1CC2(CCOCC2)Oc2nc(OCCN3CCCCC3)c(C)cc2S1(=O)=O (single isomer, unassigned) [Example 354, (*S)-3-(3-(Difluoromethyl)-8-methyl-[1,2,4]triazolo[4,3-a]pyridin-7-yl)-2,2-dimethyl-3-(5-methyl-6-((8′-methyl-1′,1′-dioxido-7′-(2-(piperidin-1-yl)ethoxy)-2,3,5,6-tetrahydrospiro[pyran-4,4′-pyrido[2,3-b][1,4,5]oxathiazepin]-2′(3′H)-yl)methyl)pyridin-2-yl)propanoic Acid] | < 1 | 20.6
Cc1ccc([C@H](CC(=O)O)c2ccn3c(C(F)(F)F)nnc3c2C)cc1CN1CC2(CC2)Oc2nc(N(C)CCCO)ccc2S1(=O)=O (single isomer, unassigned) [Example 108, (*S)-3-(-3-((7′-((3-Hydroxypropyl)(methyl)amino)-1′,1′-dioxidospiro[cyclopropane-1,4′-pyrido[2,3-b][1,4,5]oxathiazepin]-2′(3′H)-yl)methyl)-4-methylphenyl)-3-(8-methyl-3-(trifluoromethyl)-[1,2,4[triazolo[4,3-a]pyridine-7-yl)propanoic Acid] | < 1 | 406
Cc1cnc2c(c1)S(=O)(=O)N(Cc1cc([C@@H](c3ccc4c(nnn4C4CC4)c3C)C(C)(C)C(=O)O)cnc1C)CC1(COC1)O2 (single isomer, unassigned) [Example 623, (*R)-3-(1-Cyclopropyl-4-methyl-1H-benzo[d][1,2,3]triazol-5-yl)-2,2-dimethyl-3-(6-methyl-5-((8′-methyl-1′,1′-dioxidospiro[oxetane-3,4′-pyrido[2,3-b][1,4,5]]oxathiazepin]-2′(3′H)-yl)methyl)pyridine-3-yl)propanoic Acid] | < 1 | 7.5
